For 14 molecules, Maximal relaxation results are on record in ChEMBL document CHEMBL1137120, “Synthesis and biological evaluation of flavonoids as vasorelaxant agents” (2004).

The species entered for this assay is Rattus norvegicus. The assay can be described thus: Tested for vasorelaxant activity in rat thoracic aorta rings against PE-induced contractions. Type of assay: functional.
Take `O=c1cc(-c2ccc3c(c2)OCO3)oc2cc(O)cc(O)c12`: the Maximal relaxation worked out at 91.3%.

Molecule `Cc1ccc(-c2cc(=O)c3c(O)cc(O)cc3o2)cc1` registered a Maximal relaxation of 77.2%. `Cc1c(O)c(C)c2c(c1O)C(=O)C(O)C(c1ccc(O)cc1)O2` (centres undefined): the Maximal relaxation was found to be 64.4%. On to `O=c1cc(-c2cccc(Br)c2)oc2cc(O)cc(O)c12`, for which the Maximal relaxation turned out to be 95%.

For the molecule `O=c1cc(-c2ccc(Cl)cc2)oc2cc(O)cc(O)c12`, the Maximal relaxation worked out at 92.7%.

Take `COc1cccc(-c2cc(=O)c3c(O)cc(O)cc3o2)c1`: the Maximal relaxation is given as 80.8%. As to `O=c1c(O[C@@H]2OC[C@@H](O)[C@H](O)[C@@H]2O)c(-c2ccc(O)c(O)c2)oc2cc(O)cc(O)c12`, the Maximal relaxation came out at 24.7%. On to `O=c1c(O[C@@H]2OC[C@@H](O)[C@@H](O)[C@H]2O)c(-c2ccc(O)c(O)c2)oc2cc(O)cc(O)c12`, for which the Maximal relaxation is given as 35.1%. The figure for `COCOc1c(-c2ccc(O)c(O)c2)oc2cc(O)cc(O)c2c1=O` is 71.6%.

As for `O=c1cc(-c2ccccc2)oc2cc(O[C@@H]3O[C@H](CO)[C@@H](O)C(O)[C@H]3O)c(O)c(O)c12` (single isomer, unassigned), the Maximal relaxation is reported as 36.2%. On to `O=c1c(O[C@@H]2O[C@H](CO)C(O)C(O)[C@H]2O)c(-c2ccc(O)c(O)c2)oc2cc(O)cc(O)c12` (single isomer, unassigned) [ISOQUERCETIN], for which the Maximal relaxation was found to be 34%. In turn, `C[C@@H]1O[C@@H](OC[C@H]2O[C@@H](Oc3c(-c4ccc(O)c(O)c4)oc4cc(O)cc(O)c4c3=O)C(O)[C@@H](O)[C@@H]2O)[C@H](O)[C@H](O)[C@H]1O` (single isomer, unassigned) [RUTIN] showed a Maximal relaxation of 24.7%. Consider `O=c1cc(-c2ccc(O)c(O)c2)oc2cc(O)cc(O)c12` [LUTEOLIN], for which the Maximal relaxation turned out to be 70.2%. With `O=c1c(O)c(-c2ccc(O)c(O)c2)oc2cc(O)cc(O)c12` [QUERCETIN] the figure was 45.9%.
